{"source": "patent US12036292B2", "about": "“Heterobiaryl compounds and imaging agents for imaging huntingtin protein” (CHDI Foundation, Inc., priority 2020, dated 2024)", "data": [{"biological_target": "T1, MBP-HTT(1-89)Q46-His(6×) (“Exon1-Q46”) protein aggregates (Homo sapiens, UniProt P42858, INS38QQQQQQQQQQQQQQQQQQQQQQQQQ)", "T1 construct": "MBP-HTT(1-89)Q46-His(6×); His(6×) (C); made in house", "T1 sequence (P42858 with tags, fused parts or gaps with the stated changes limits assumed)": "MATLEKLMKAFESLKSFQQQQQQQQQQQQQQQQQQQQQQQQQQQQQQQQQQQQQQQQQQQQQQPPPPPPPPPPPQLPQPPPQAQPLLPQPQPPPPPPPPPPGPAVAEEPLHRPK", "assay": "Exon1-Q46 Radioligand Binding Assay", "conditions": "displacement of 0.3 nM ligand [3H3-methyl]-5-((5-methoxypyridin-2-yl)methoxy)-2-(pyrazin-2-yl)benzo[d]oxazole from 1 μM aggregated Exon1-Q46 protein; 60 minutes at 37° C.; read-out: Classified Potency", "description": "Exon1-Q46 Radioligand Binding Assay\nFor radioligand binding assays (RBA) MBP-HTT(1-89)Q46-His(6×) (“Exon1-Q46”) protein was generated based on a previous publication (Scherzinger et al. Cell, Vol. 90, 549-558, Aug. 8, 1997). For experiments, 30 pM MBP-Exon1-Q46 was incubated with 150 μg/mL thrombin in assay buffer (150 mM NaCl, 50 mM Tris pH 8.0) and 2 mM CaCl2 for 16 hours at 37° C. Aggregated Exon1-Q46 was pelleted by centrifugation for 5 minutes at 13,000 rpm in a bench top centrifuge and re-dissolved in the same volume of assay buffer. Test compounds were prepared by titration in DMSO at 11 concentrations from 63 μM to 2 nM. For the RBA, Q46 protein aggregates and test compounds were pre-incubated in assay buffer for 20 minutes at room temperature, in 100 μL/well in a 96-well plate (pp, round bottom). Then, ligand was added in 50 μL/well and incubated for 60 minutes at 37° C. Final assay concentrations were 1 μM to 30 pM test compound, 1 μM Exon1-Q46 protein (equivalent monomer concentration) and 0.3 nM ligand [^3H3-methyl]-5-((5-methoxypyridin-2-yl)methoxy)-2-(pyrazin-2-yl)benzo[d]oxazole. Samples were transferred onto GF/B filter plates and washed 2× with 200 μL PBS using a Filtermate Harvester. After drying filter plates for 1 hour at 55° C., the back of the plates were sealed with foil and 30 μL/well scintillation fluid (Packard MicroScint 40) added, incubated for 15 minutes in the dark and counted in a MicroBeta reader. For analysis, replicate data from independent assay plates were normalized towards 0% and 100% inhibition using control wells of vehicle (0% inhibition) and 1 μM unlabeled [^3H3-methyl]-5-((5-methoxypyridin-2-yl)methoxy)-2-(pyrazin-2-yl)benzo[d]oxazole (100% inhibition). IC50 values were determined with a sigmoidal inhibition model with four variables (top, bottom, slope, IC50) in a global fit using the normalized replicate data.\nThe results for various example compounds were as provided in the table below (+++<100 nM; ++100-500; +500-10000; ND: not determined): […]", "units": {"IC50": "nM"}, "values": [{"smiles": "O=C(Nc1ccccc1)c1cc(-c2cccc(Cl)c2)ncn1", "note": "[Example 1, 6-(3-Chlorophenyl)-N-phenylpyrimidine-4-carboxamide]", "IC50": "< 100"}, {"smiles": "O=C(c1cc(-c2cccc(Cl)c2)ncn1)N1CCc2ccccc21", "note": "[Example 2]", "IC50": "< 100"}, {"smiles": "COc1cncc(NC(=O)c2cc(-c3cccc(Cl)c3)ncn2)c1", "note": "[Example 3]", "IC50": "< 100"}, {"smiles": "COc1cccc(-c2cc(C(=O)Nc3ccc(=O)n(C)n3)ncn2)c1", "note": "[Example 4, 6-(3-Methoxyphenyl)-N-(1-methyl-6-oxo-1,6-dihydropyridazin-3-yl)pyrimidine-4-carboxamide]", "IC50": "< 100"}, {"smiles": "COc1cc(-c2cc(C(=O)Nc3cncc(OC)c3C)ncn2)ccn1", "note": "[Example 5]", "IC50": "< 100"}, {"smiles": "COc1cc(-c2cc(C(=O)Nc3cncc(Cl)c3OC)ncn2)ccn1", "note": "[Example 6]", "IC50": "< 100"}, {"smiles": "COc1cncc(NC(=O)c2cc(-c3ccnc(OC)c3)ncn2)c1", "note": "[Example 7]", "IC50": "< 100"}, {"smiles": "COc1ccc(-c2cc(C(=O)Nc3ccc(=O)n(C)n3)ncn2)cc1Cl", "note": "[Example 8, 6-(3-Chloro-4-methoxyphenyl)-N-(1-methyl-6-oxo-1,6-dihydropyridazin-3-yl)pyrimidine-4-carboxamide]", "IC50": "< 100"}, {"smiles": "COc1cc(-c2cc(C(=O)Nc3ccc(=O)n(C)n3)ncn2)ccc1Cl", "note": "[Example 9]", "IC50": "< 100"}, {"smiles": "COc1cc(-c2cc(C(=O)Nc3ccc(=O)n(C)n3)ncn2)ccc1F", "note": "[Example 10]", "IC50": "< 100"}, {"smiles": "Cn1nc(NC(=O)c2cc(-c3cc(F)cc(Cl)c3)ncn2)ccc1=O", "note": "[Example 11]", "IC50": "< 100"}, {"smiles": "Cn1nc(NC(=O)c2cc(-c3ccc(F)c(Cl)c3)ncn2)ccc1=O", "note": "[Example 12]", "IC50": "< 100"}, {"smiles": "COc1ccc(CNC(=O)c2cc(-c3ccc(F)c(OC)c3)ncn2)nc1", "note": "[Example 13]", "IC50": "< 100"}, {"smiles": "COc1cc(-c2cc(C(=O)N3Cc4cccnc4C3)ncn2)ccn1", "note": "[Example 14]", "IC50": "< 100"}, {"smiles": "COc1cc(-c2cc(C(=O)NCc3ncccc3OC)ncn2)ccc1F", "note": "[Example 15]", "IC50": "< 100"}, {"smiles": "COc1ccnc(CNC(=O)c2cc(-c3ccc(F)c(OC)c3)ncn2)n1", "note": "[Example 16]", "IC50": "< 100"}, {"smiles": "COc1ncc(-c2cc(C(=O)Nc3ccc(=O)n(C)n3)ncn2)cc1Cl", "note": "[Example 17]", "IC50": "< 100"}, {"smiles": "COc1ccc(-c2cc(C(=O)Nc3nccn(C)c3=O)ncn2)cc1Cl", "note": "[Example 18]", "IC50": "< 100"}, {"smiles": "COc1cc(C#N)cc(-c2cc(C(=O)Nc3ccc(=O)n(C)n3)ncn2)c1", "note": "[Example 19]", "IC50": "< 100"}, {"smiles": "Cn1nc(NC(=O)c2cc(-c3cc(F)cc(C#N)c3)ncn2)ccc1=O", "note": "[Example 20]", "IC50": "< 100"}, {"smiles": "COc1cc(F)cc(-c2cc(C(=O)Nc3ccc(=O)n(C)n3)ncn2)c1", "note": "[Example 21]", "IC50": "< 100"}, {"smiles": "Cc1cc(Cl)cc(-c2cc(C(=O)Nc3ccc(=O)n(C)n3)ncn2)c1", "note": "[Example 22]", "IC50": "< 100"}, {"smiles": "Cn1nc(NC(=O)c2cc(-c3cc(F)nc(Cl)c3)ncn2)ccc1=O", "note": "[Example 23]", "IC50": "< 100"}, {"smiles": "Cn1ccnc(NC(=O)c2cc(-c3cc(F)cc(Cl)c3)ncn2)c1=O", "note": "[Example 24]", "IC50": "< 100"}, {"smiles": "COc1cnc(NC(=O)c2cc(-c3cc(F)cc(Cl)c3)ncn2)cn1", "note": "[Example 25]", "IC50": "< 100"}, {"smiles": "COc1cc(C#N)cc(-c2cc(C(=O)Nc3ccc(=O)[nH]n3)ncn2)c1", "note": "[Example 26]", "IC50": "< 100"}, {"smiles": "N#Cc1cc(F)cc(-c2cc(C(=O)Nc3ccc(=O)[nH]n3)ncn2)c1", "note": "[Example 27]", "IC50": "< 100"}, {"smiles": "COc1ncc(NC(=O)c2cc(-c3cc(F)cc(Cl)c3)ncn2)cn1", "note": "[Example 28]", "IC50": "< 100"}, {"smiles": "COc1cc(-c2cc(C(=O)NCc3nccc(=O)n3C)ncn2)ccc1F", "note": "[Example 29, 6-(4-Fluoro-3-methoxyphenyl)-N-((1-methyl-6-oxo-1,6-dihydropyrimidin-2-yl)methyl)pyrimidine-4-carboxamide]", "IC50": "< 100"}, {"smiles": "COc1ccc(-c2cc(C(=O)NCc3nccc(=O)n3C)ncn2)cc1Cl", "note": "[Example 30]", "IC50": "< 100"}, {"smiles": "Cn1c(CNC(=O)c2cc(-c3cc(F)cc(Cl)c3)ncn2)nccc1=O", "note": "[Example 31]", "IC50": "< 100"}, {"smiles": "Cn1c(CNC(=O)c2cc(-c3cc(F)cc(C#N)c3)ncn2)nccc1=O", "note": "[Example 32]", "IC50": "< 100"}, {"smiles": "COc1ncc(-c2cc(C(=O)NCc3nccc(=O)n3C)ncn2)cc1Cl", "note": "[Example 33, 6-(5-Chloro-6-methoxypyridin-3-yl)-N-((1-methyl-6-oxo-1,6-dihydropyrimidin-2-yl)methyl)pyrimidine-4-carboxamide]", "IC50": "< 100"}, {"smiles": "COc1ccnc(CNC(=O)c2cc(-c3cnc(OC)c(Cl)c3)ncn2)n1", "note": "[Example 34, 6-(5-chloro-6-methoxypyridin-3-yl)-N-((4-methoxypyrimidin-2-yl)methyl)pyrimidine-4-carboxamide]", "IC50": "< 100"}, {"smiles": "Cn1cc(NC(=O)c2cc(-c3cc(F)cc(Cl)c3)ncn2)cnc1=O", "note": "[Example 35, 6-(3-Chloro-5-fluorophenyl)-N-(1-methyl-2-oxo-1,2-dihydropyrimidin-5-yl)pyrimidine-4-carboxamide]", "IC50": "< 100"}, {"smiles": "COc1ccc(-c2cc(C(=O)Nc3cnn(C)c(=O)c3)ncn2)cc1Cl", "note": "[Example 36, 6-(3-Chloro-4-methoxyphenyl)-N-(1-methyl-6-oxo-1,6-dihydropyridazin-4-yl)pyrimidine-4-carboxamide]", "IC50": "< 100"}, {"smiles": "COc1ccc(-c2cc(C(=O)Nc3cc(=O)n(C)cn3)ncn2)cc1Cl", "note": "[Example 37]", "IC50": "< 100"}, {"smiles": "Cn1cnc(NC(=O)c2cc(-c3cc(F)cc(Cl)c3)ncn2)cc1=O", "note": "[Example 38]", "IC50": "< 100"}, {"smiles": "Cn1ncc(NC(=O)c2cc(-c3cc(F)cc(Cl)c3)ncn2)cc1=O", "note": "[Example 39]", "IC50": "< 100"}, {"smiles": "COc1cc(-c2cc(C(=O)Nc3ccc(=O)n(C)n3)nc(-c3ccccc3)n2)ccn1", "note": "[Example 40, 6-(2-Methoxypyridin-4-yl)-N-(1-methyl-6-oxo-1,6-dihydropyridazin-3-yl)-2-phenylpyrimidine-4-carboxamide]", "IC50": "< 100"}]}]}
